# In patent US8202893B2, “Cannabinergic lipid ligands” (University of Connecticut, priority 2004, dated 2012):
# Target: T1, COX-2 (Homo sapiens, UniProt P35354)
# T1 construct: purchased Cayman Chemical
# T1 sequence (P35354 18-604): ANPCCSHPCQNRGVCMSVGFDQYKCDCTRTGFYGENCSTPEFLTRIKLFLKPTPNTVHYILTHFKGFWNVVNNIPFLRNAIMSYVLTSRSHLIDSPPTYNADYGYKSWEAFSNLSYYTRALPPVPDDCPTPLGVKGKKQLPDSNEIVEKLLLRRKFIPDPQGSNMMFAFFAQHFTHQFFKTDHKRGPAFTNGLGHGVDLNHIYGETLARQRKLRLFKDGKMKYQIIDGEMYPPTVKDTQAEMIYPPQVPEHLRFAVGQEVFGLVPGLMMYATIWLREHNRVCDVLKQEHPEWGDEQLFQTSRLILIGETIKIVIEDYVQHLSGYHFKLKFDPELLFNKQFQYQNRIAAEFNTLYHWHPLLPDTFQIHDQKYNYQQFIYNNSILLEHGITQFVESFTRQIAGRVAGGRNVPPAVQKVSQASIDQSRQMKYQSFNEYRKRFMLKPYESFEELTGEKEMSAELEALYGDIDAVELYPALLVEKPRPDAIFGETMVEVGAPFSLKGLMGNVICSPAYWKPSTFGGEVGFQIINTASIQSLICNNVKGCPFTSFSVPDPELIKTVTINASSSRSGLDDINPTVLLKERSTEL
# Assay: Inhibition of COX: arachidonic acid metabolism
# Format: biochemical
# Conditions: 25 nmoles compound with 25 nmoles AA, 250 μL, 2 min
# Description: All compound solutions were made to a concentration of 10 mM in DMSO. Three tests were performed on each compound: hydrolysis, to determine the stability of the compound in assay conditions without the enzyme present; metabolism, to determine the stability of the compound with the enzyme present; and inhibition of arachidonic acid (AA) metabolism.
# To test the stability of the compounds in enzyme assay conditions, 25 nmoles of the compound were incubated with 12.5 μl 100 uM hematin in assay buffer (0.1M PH8.0 Tris-HCl, 2 mM phenol, 5 mM EDTA, 0.1% BSA, final volume of 250 μL) for 2 minutes at 25° C. Samples (100 μL) were taken at the start of the assay and after 2 minutes, diluted 1:5 with acetonitrile and centrifuged (20,000 RCF, five minutes, room temperature) to precipitate the proteins. The resulting supernatant was injected onto the HPLC. Calculations for determining the percent compound remaining are described in the following equation: % R=Peak Area(T2)/Peak Area(T0) To determine whether or not the compounds were good substrates for COX enzyme, 25 nmoles of the compound were incubated with 12.5 μl COX enzyme (purchased form Cayman Chemical) and 5 uM hematin in assay buffer (final volume 250 μL). The reaction mixture was treated in the same manner as described above. Concentrations of AA were calculated using external standards. […] Again the reaction mixture was treated in the same manner as described above and the concentrations of AA were calculated using external standards. Percent inhibition was calculated using the following equation: % Inhib.=(AA0-AA2)i/(AA0-AA2)s where (AA0-AA2)i is the amount of arachidonic acid metabolized over 2 minutes with the inhibitor present and (AA0-AA2)s is the amount of arachidonic acid metabolized over 2 minutes when the inhibitor is not present. […] The reaction mixtures were treated as described above and the amount of AA metabolized was calculated. The software package GraphPad Prism was utilized to calculate IC50 and Ki. HPLC Conditions:
# Chromatographic separation was achieved using an Ultrasphere ODS Pre-column (4.6×45 mm) from Beckman. Hardware consisted of a Waters Millennium HPLC system with a 20 μL injection loop. The mobile phase consisted of 8.5% o-phosphoric acid:acetonitrile (3:7), run isocratically at a rate of 1 mL/min and detection at 204 nm. The total run time was 8 minutes with AA at 6.0 minutes.
row,Structure (SMILES),COX-2 % Inhibition [%]
1,O=C(CCC/C=C\C/C=C\C/C=C\C/C=C\CCCCc1ccccc1)NCC1CC1 [Compound A1],78.4
2,O=C(CCC/C=C\C/C=C\C/C=C\C/C=C\CCc1ccccc1)Nc1ccc(O)cc1 [Compound A3],77.4
3,COc1cc(CNC(=O)CCC/C=C\C/C=C\C/C=C\C/C=C\CCCCN=[N+]=[N-])ccc1O [Compound A7],42.4
4,COc1cc(CNC(=O)CCC/C=C\C/C=C\C/C=C\C/C=C\CCCCN=C=S)ccc1O [Compound A12],46.2
